In patent publication US20100061994A1, “MEDICAL USES OF 39-DESMETHOXYRAPAMYCIN AND ANALOGUES THEREOF” (priority 2005, published 2010):

Legend:
EAE = test: Experimental allergic encephalomyelitis (EAE) model of multiple sclerosis; type: in vivo, male Lewis rats
U87-MG = test: Glioma orthotopically xenografted in nude mice, MRI tumour volume; type: in vivo; details: 3 mg/kg/inj IV, (Q1D×3)×5W, MRI at D23, mean of 4 values
Description: The test compound was dissolved in ethanol (0.027 mL/mg compound) and vortexed for 20 min until the solution was clear. Ethanolic solutions were aliquoted as appropriate and stored at −20° C.
The test substance and control vehicle were administered intravenously (IV, bolus) by injection into the caudal vein of the test mice. An injection volume of 10 mL/kg was used, based on the most recent body weight of mice.
The cell line used for the study was U87-MG, a glioblastoma cell line initiated by J. Ponten from a […] glioblastoma from a person (Poten et al., 1968).
Mice were stereotaxically injected with U87-MG cells at D, 24 to 48 hours after a whole body irradiation with a γ-source (2.5 Gy, Co^60, INRA BRETENIERE, Dijon). For the stereotaxic injection of tumour cells, mice were anesthetised by an intraperitoneal injection of Ketamine 100 mg/kg (Ketamine500®, Ref 043KET204, Centravet, France) and Xylazine 5 mg/kg (Rompun®, Ref 002ROM001, Centravet, France) in 0.9% NaCl solution at 10 mL/kg/inj. […]
After tripilot acquisitions, a turboRare T2 weighted sequence was performed. […] The tumour volume was determined by manually drawing a region of interest (ROI) around the tumour in each slice and by summation of all the surfaces.
Additionally the MRI analysis was used to calculate the average calculated tumour volume per treatment group, the results are summarised in Table 13 below. […]

[1] = 5 mg/kg p.o., Prophylactic regime
[2] = 5 mg/kg p.o., Therapeutic regime
[3] = 15 mg/kg p.o., Prophylactic regime
[4] = 15 mg/kg p.o., Therapeutic regime

With `COC1CC2CCC(C)C(O)(O2)C(=O)C(=O)N2CCCCC2C(=O)OC(C(C)CC2CCC(O)CC2)CC(=O)C(C)C=C(C)C(O)C(OC)C(=O)C(C)CC(C)C=CC=CC=C1C` (centres unmarked) [39-desmethoxyrapamycin] the “Cumulative score Mean ± St Dev.” value (EAE; [1]) was 17 ± 4.6, the “Duration (days) Mean ± St Dev.” value (EAE; [1]) was 10 ± 1.8 days and the “Onset Mean ± St Dev.” value (EAE; [1]) was 12 ± 2.1. For the same compound, the “Cumulative score Mean ± St Dev.” value (EAE; [2]) was 30 ± 3.1, the “Duration (days) Mean ± St Dev.” value (EAE; [2]) was 15 ± 1.3 days and the “Onset Mean ± St Dev.” value (EAE; [2]) was 10 ± 1.0. For the same compound, the “Cumulative score Mean ± St Dev.” value (EAE; [3]) was 22 ± 22, the “Duration (days) Mean ± St Dev.” value (EAE; [3]) was 10 ± 3.4 days and the “Onset Mean ± St Dev.” value (EAE; [3]) was 12 ± 2.4. For the same compound, the “Cumulative score Mean ± St Dev.” value (EAE; [4]) was 32 ± 5.7, the “Duration (days) Mean ± St Dev.” value (EAE; [4]) was 16 ± 3.3 days and the “Onset Mean ± St Dev.” value (EAE; [4]) was 9 ± 1.4. For the same compound, the “efficacy in the EAE model compared to cyclophosphamide” value (EAE; 5 and 15 mg/kg, prophylactic and therapeutic regime) was “equivalent efficacy in this model to cyclophosphamide” and the “average calculated tumour volume, Day 23 (mm^3)” value (U87-MG) was 1.25 mm^3.
